Source: PMC12593396 (2025)

Key:
[1] = tested on: 4WJ (DNA, junction) GCCTAGCATGATACTGCTACCG/CGGTAGCAGTACCGTTGGTGGC/GCCACCAACGGCGTCAACTGCC/GGCAGTTGACGTCATGCTAGGC; assay: UV melting; settings: 100 mM NaCl; 10 mM Na cacodylate; 1 equivalent compound
[2] = tested on: 3WJ-T6 (DNA, junction) ACTCTTCTCGTTTTTTCGAGAGCGACTTTTTTGTCGCAGAGT; assay: ITC; settings: 100 mM NaCl, 10 mM sodium cacodylate, pH 7.4, 25 °C, at ITC detection limit
[3] = tested on: Cy5–3WJ-T3 (DNA, junction) CGGAACGGCACTCGTTTCGAGTGCAGCGTGGTTTCCACGCTCGTTCCG; assay: MST; settings: 100 mM NaCl, 10 mM Na cacodylate
[4] = tested on: FAM–4WJ (DNA, junction) GCCTAGCATGATACTGCTACCG/CGGTAGCAGTACCGTTGGTGGC/GCCACCAACGGCGTCAACTGCC/GGCAGTTGACGTCATGCTAGGC; assay: MST; settings: 100 mM NaCl; 10 mM Na cacodylate; not saturated, highest 100 μM
[5] = tested on: DS-21 (CD) (DNA, duplex) CCTTCACGCGAACGTAATCCT/AGGATTACGTTCGCGTGAAGG; assay: CD; settings: 1 equivalent compound
[6] = tested on: Y-fork (DNA, junction) CGGTAGCAGTACCGTTGGTGGC/GCCACCAACGGCGTCAACTGCC; assay: PAGE competition; settings: competes with 3WJ-FAM; ~22% decrease of 3WJ at 4 equivalents
[7] = tested on: DS-21 (MST) (DNA, duplex) CCTTCACGCGAACGTAATCCT/AGGATTACGTTCGCGTGAAGG; assay: MST; settings: highest tested 50 μM; authors suggest Kd at best high micromolar

SMILES | ΔTm [1] [°C] | Kd [2] | Kd ([3]; 0.1% Tween-20, 25 °C, 1 nM DNA) | Kd [4] [µM] | Kd ([2]; 0.5% acetonitrile) | binding [5] | Kd ([3]; 0.1% Tween, 25 °C, 20 nM DNA) | binding [6] | binding [7]
C(=Nc1ccc(Cc2ccc(N=Cc3ccccn3)cc2)cc1)c1ccccn1.C(=Nc1ccc(Cc2ccc(N=Cc3ccccn3)cc2)cc1)c1ccccn1.C(=Nc1ccc(Cc2ccc(N=Cc3ccccn3)cc2)cc1)c1ccccn1.[Ni+2].[Ni+2] | 8.8 ± 1.0 | 7.17 ± 0.51 × 10^–9 M | 5.15 ± 0.67 × 10^–10 M | – | – | – | – | – | –
[Pt+2].[Pt+2].c1cncc(Oc2ccc(Oc3cccnc3)cc2)c1.c1cncc(Oc2ccc(Oc3cccnc3)cc2)c1.c1cncc(Oc2ccc(Oc3cccnc3)cc2)c1.c1cncc(Oc2ccc(Oc3cccnc3)cc2)c1 | 6.0 ± 1.1 | – | – | > 4 | 9.94 ± 4.36 × 10^–9 M | weak | 1.22 ± 0.22 × 10^–8 M | weak | no
